Measurements: ChEMBL document CHEMBL1201862, “PubChem BioAssay data set” (2004)
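Values below derive from 48-hour exposures of cells grown in 96-well plates, with endpoints linearly interpolated between the two concentrations bracketing the appropriate inhibition level. GI50 is the concentration that inhibits growth by half.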 Active and inactive are the calls of the source. Cut-off read from the data, not from the text of the source: active = GI50 up to about 1.1 µM and inactive = higher.

Key:
Experiment in all cases: NCI anticancer screen, dose series, 48 h
786-0 = system: 786-0
A498 = system: A498
ACHN = system: ACHN
HCC 2998 = system: HCC 2998
HCT-15 = system: HCT-15
HL-60 = system: HL-60
HT-29 = system: HT-29
KM12 = system: KM12
MDA-MB-231 = system: MDA-MB-231
NCI-H522 = system: NCI-H522
RXF 393 = system: RXF 393
SF-268 = system: SF-268
SF-539 = system: SF-539
SK-MEL-28 = system: SK-MEL-28
SN12C = system: SN12C
UACC-257 = system: UACC-257
UO-31 = system: UO-31
EKVX = system: EKVX
SW-620 = system: SW-620

Question: What does the source list for `CC(=O)OCC1OC(n2c3c(cc(C#N)c2=S)CCCCCC3)C(OC(C)=O)C(OC(C)=O)C1OC(C)=O` (centres undefined)?
Answer: GI50 (786-0): 99.8 µM (inactive); GI50 (A498): > 100 µM (inactive); GI50 (ACHN): > 100 µM (inactive); GI50 (HCC 2998): 27.5 µM (inactive); GI50 (HCT-15): 97.5 µM; GI50 (HL-60): 36.2 µM (inactive); GI50 (HT-29): 41.2 µM (inactive); GI50 (KM12): > 100 µM (inactive); GI50 (MDA-MB-231): > 100 µM (inactive); GI50 (NCI-H522): 76.4 µM (inactive); GI50 (RXF 393): > 100 µM (inactive); GI50 (SF-268): > 100 µM (inactive); GI50 (SF-539): > 100 µM (inactive); GI50 (SK-MEL-28): > 100 µM (inactive); GI50 (SN12C): > 100 µM (inactive); GI50 (UACC-257): > 100 µM (inactive); GI50 (UO-31): > 100 µM (inactive)

Question: What does the source list for `COc1cc(C)c2c(=O)c3ccccc3n(C)c2c1`?
Answer: GI50 (786-0): 10.6 µM (inactive); GI50 (A498): 26.5 µM (inactive); GI50 (ACHN): 24.3 µM (inactive); GI50 (EKVX): 35 µM (inactive); GI50 (HCC 2998): 45 µM (inactive); GI50 (HCT-15): 22.3 µM; GI50 (HL-60): 32.7 µM (inactive); GI50 (HT-29): 11.8 µM (inactive); GI50 (KM12): 23.9 µM (inactive); GI50 (MDA-MB-231): 25.6 µM (inactive); GI50 (NCI-H522): 2.54 µM (inactive); GI50 (RXF 393): 14.2 µM (inactive); GI50 (SF-268): 30.5 µM (inactive); GI50 (SF-539): 15.6 µM (inactive); GI50 (SK-MEL-28): 32 µM (inactive); GI50 (SN12C): 20.7 µM (inactive); GI50 (SW-620): 45.3 µM (inactive); GI50 (UACC-257): 30.3 µM (inactive)

Question: How did the GI50 (786-0) turn out when `CCOC(=O)c1c(O)cn2c1[nH]c1cccc3cccc2c31` was run?
Answer: The GI50 was 52.2 µM (inactive).

Question: And the GI50 (A498)?
Answer: The GI50 was > 100 µM (inactive).

Question: And the GI50 (ACHN)?
Answer: The GI50 was 52.4 µM (inactive).

Question: And the GI50 (EKVX)?
Answer: The GI50 was > 100 µM (inactive).

Question: And the GI50 (HCC 2998)?
Answer: The GI50 was 64.7 µM (inactive).

Question: What about the GI50 (HCT-15) of the same compound?
Answer: Its GI50 is 54.6 µM.

Question: And the GI50 (HL-60)?
Answer: The GI50 was 57.3 µM (inactive).

Question: What about the GI50 (HT-29) of the same compound?
Answer: The GI50 was > 100 µM (inactive).

Question: And the GI50 (KM12)?
Answer: The GI50 was > 100 µM (inactive).

Question: What about the GI50 (MDA-MB-231) of the same compound?
Answer: The GI50 was > 100 µM (inactive).

Question: What about the GI50 (NCI-H522) of the same compound?
Answer: The GI50 was 46.5 µM (inactive).

Question: And the GI50 (RXF 393)?
Answer: Its GI50 is 41.5 µM (inactive).

Question: What about the GI50 (SF-268) of the same compound?
Answer: The GI50 was 63.7 µM (inactive).

Question: What about the GI50 (SK-MEL-28) of the same compound?
Answer: Its GI50 is > 100 µM (inactive).

Question: And the GI50 (SN12C)?
Answer: Its GI50 is > 100 µM (inactive).

Question: And the GI50 (SW-620)?
Answer: Its GI50 is > 100 µM (inactive).

Question: And the GI50 (UACC-257)?
Answer: Its GI50 is > 100 µM (inactive).

Question: And the GI50 (UO-31)?
Answer: The GI50 was 69.2 µM (inactive).

Question: Which results are given for `O=c1c(-c2ccccc2F)coc2cc(F)ccc12`?
Answer: GI50 (786-0): 79.6 µM (inactive); GI50 (A498): > 100 µM (inactive); GI50 (ACHN): > 100 µM (inactive); GI50 (EKVX): > 100 µM (inactive); GI50 (HCT-15): > 100 µM; GI50 (HL-60): 70.6 µM (inactive); GI50 (HT-29): > 100 µM (inactive); GI50 (KM12): > 100 µM (inactive); GI50 (MDA-MB-231): > 100 µM (inactive); GI50 (NCI-H522): 37.7 µM (inactive); GI50 (RXF 393): > 100 µM (inactive); GI50 (SF-268): > 100 µM (inactive); GI50 (SF-539): 91.4 µM (inactive); GI50 (SK-MEL-28): > 100 µM (inactive); GI50 (SN12C): > 100 µM (inactive); GI50 (SW-620): > 100 µM (inactive); GI50 (UACC-257): > 100 µM (inactive); GI50 (UO-31): > 100 µM (inactive)

Question: What does the source list for `O=C(NNc1ccccc1)c1ccc(Cl)c(Cl)c1`?
Answer: GI50 (786-0): 41 µM (inactive); GI50 (A498): 5.2 µM (inactive); GI50 (ACHN): 11.3 µM (inactive); GI50 (EKVX): 4.39 µM (inactive); GI50 (HCC 2998): 2.31 µM (inactive); GI50 (HCT-15): 15.5 µM; GI50 (HL-60): 0.0569 µM (active); GI50 (HT-29): 15.7 µM (inactive); GI50 (KM12): 0.114 µM (active); GI50 (MDA-MB-231): 35.6 µM (inactive); GI50 (NCI-H522): 0.574 µM (active); GI50 (RXF 393): 19.3 µM (inactive); GI50 (SF-268): 1.45 µM (inactive); GI50 (SF-539): 0.0718 µM (active); GI50 (SK-MEL-28): > 100 µM (inactive); GI50 (SN12C): 27.9 µM (inactive); GI50 (SW-620): 0.108 µM (active); GI50 (UO-31): 2.44 µM (inactive)
